{"source": "paper PMC2904454", "about": "(Cancer Chemotherapy and Pharmacology, 2009)", "key": {"[1]": {"assay": "Plasma pharmacokinetics of sunitinib, SU12662 and total drug", "assay_type": "in vivo, human", "settings": "for Mean trough plasma concentration: day 14 of cycle 1, Schedule 2/1"}, "[2]": {"assay": "Plasma pharmacokinetics of docetaxel", "assay_type": "in vivo, human", "settings": "for half-life / AUC(0-inf) / Cmax / Tmax: plasma, intravenous; for Tmax: median (range)"}, "[3]": {"system": "patients with advanced solid tumors", "assay_type": "in vivo, human", "settings": "for MTD of docetaxel in combination with sunitinib: IV q21d; for MTD of sunitinib in combination with docetaxel: with docetaxel q21d"}, "breast cancer and NSCLC": {"system": "breast cancer and NSCLC", "settings": "cited from earlier work"}, "NSCLC": {"system": "NSCLC", "settings": "ESCAPE, with carboplatin and paclitaxel in NSCLC; cited from earlier work"}, "[4]": {"system": "patients with advanced solid tumors", "assay": "Safety: adverse events graded by NCI CTCAE v3.0, ECG/MUGA, patient disposition", "assay_type": "in vivo, human", "settings": "with docetaxel"}, "[5]": {"settings": "Schedule 2/1 dose level 3b (MTD), n = 10"}, "[6]": {"settings": "Schedule 2/1 dose level 3b (MTD), n = 10, docetaxel + sunitinib (day 1 of cycle 2)"}, "[7]": {"settings": "Schedule 2/1 dose level 3b (MTD), n = 10, sunitinib alone (day 3 of cycle 1)"}, "[8]": {"settings": "Schedule 4/2 dose level 0, n = 3"}, "[9]": {"settings": "Schedule 4/2 dose level 0, n = 3, docetaxel + sunitinib (day 22)"}, "[10]": {"settings": "Schedule 4/2 dose level 0, n = 3, sunitinib alone (day 18)"}, "[11]": {"settings": "Schedule 4/2 dose level 1, n = 5"}, "[12]": {"settings": "Schedule 4/2 dose level 1, n = 5, docetaxel + sunitinib (day 22)"}, "[13]": {"settings": "Schedule 4/2 dose level 1, n = 5, sunitinib alone (day 18)"}, "[14]": {"settings": "Schedule 2/1 dose level 3b, n = 8"}, "[15]": {"settings": "Schedule 2/1 MTD only, dose level 3b (n = 23)"}, "[16]": {"settings": "Schedule 2/1 dose levels 0–3b, all patients (N = 40)"}, "[17]": {"settings": "Schedule 4/2 dose levels 0–1 (N = 10)"}}, "note": "Like-named read-outs stand apart in the source and are kept apart here.", "data": [{"molecule": "CCNCCNC(=O)c1c(C)[nH]c(/C=C2\\C(=O)Nc3ccc(F)cc32)c1C", "note": "[SU12662]", "values": [{"measurement": "AUC0–24 geometric mean ratio (combination/drug alone)", "setting": "[1]; [5]", "result": 0.99}, {"measurement": "C max geometric mean ratio (combination/drug alone)", "setting": "[1]; [5]", "result": 1.16}, {"measurement": "AUC0–24, mean (SD)", "setting": "[1]; [6]", "result": "62.7 (32.4) ng*h/mL"}, {"measurement": "C max, mean (SD)", "setting": "[1]; [6]", "result": "4.1 (1.9) ng/mL"}, {"measurement": "T max, median (range)", "setting": "[1]; [6]", "result": "7.0 (2.0, 24.0) h"}, {"measurement": "C max, mean (SD)", "setting": "[1]; [7]", "result": "3.4 (1.3) ng/mL"}, {"measurement": "T max, median (range)", "setting": "[1]; [7]", "result": "5.0 (4.0, 24.0) h"}, {"measurement": "AUC0–24, mean (SD)", "setting": "[1]; Schedule 2/1 dose level 3b (MTD: sunitinib 37.5 mg + docetaxel 75 mg/m^2 q21d), n = 10, sunitinib alone (day 3 of cycle 1)", "result": "58.0 (22.3) ng*h/mL"}, {"measurement": "AUC0–24, mean (SD)", "setting": "[1]; Schedule 4/2 dose level 0 (sunitinib 25 mg, docetaxel 60 mg/m^2), n = 3, sunitinib alone (day 18)", "result": "294.0 (195.0) ng*h/mL"}, {"measurement": "AUC0–24 geometric mean ratio (combination/drug alone)", "setting": "[1]; [8]", "result": 1.10}, {"measurement": "C max geometric mean ratio (combination/drug alone)", "setting": "[1]; [8]", "result": 1.14}, {"measurement": "AUC0–24, mean (SD)", "setting": "[1]; [9]", "result": "299.9 (132.7) ng*h/mL"}, {"measurement": "C max, mean (SD)", "setting": "[1]; [9]", "result": "14.4 (7.2) ng/mL"}, {"measurement": "T max, median (range)", "setting": "[1]; [9]", "result": "4.0 (2.0, 4.0) h"}, {"measurement": "C max, mean (SD)", "setting": "[1]; [10]", "result": "13.3 (8.3) ng/mL"}, {"measurement": "T max, median (range)", "setting": "[1]; [10]", "result": "4.0 (4.0, 12.0) h"}, {"measurement": "AUC0–24, mean (SD)", "setting": "[1]; Schedule 4/2 dose level 1 (sunitinib 37.5 mg, docetaxel 60 mg/m^2), n = 5, sunitinib alone (day 18)", "result": "341.9 (110.9) ng*h/mL"}, {"measurement": "AUC0–24 geometric mean ratio (combination/drug alone)", "setting": "[1]; [11]", "result": 1.06}, {"measurement": "C max geometric mean ratio (combination/drug alone)", "setting": "[1]; [11]", "result": 1.05}, {"measurement": "AUC0–24, mean (SD)", "setting": "[1]; [12]", "result": "366.8 (137.5) ng*h/mL"}, {"measurement": "C max, mean (SD)", "setting": "[1]; [12]", "result": "17.7 (7.2) ng/mL"}, {"measurement": "T max, median (range)", "setting": "[1]; [12]", "result": "4.0 (1.0, 12.0) h"}, {"measurement": "C max, mean (SD)", "setting": "[1]; [13]", "result": "16.3 (4.6) ng/mL"}, {"measurement": "T max, median (range)", "setting": "[1]; [13]", "result": "6.0 (2.0, 12.0) h"}, {"measurement": "Mean trough plasma concentration", "setting": "[1]", "result": 16.4, "unit": "ng/mL"}]}, {"molecule": "CC(=O)O[C@@]12CO[C@@H]1C[C@H](O)[C@@]1(C)C(=O)[C@H](O)C3=C(C)[C@@H](OC(=O)[C@H](O)[C@@H](NC(=O)OC(C)(C)C)c4ccccc4)C[C@@](O)([C@@H](OC(=O)c4ccccc4)[C@H]21)C3(C)C", "note": "[docetaxel, Docetaxel]", "values": [{"measurement": "AUCinf geometric mean ratio (combination/drug alone)", "setting": "[2]; [14]", "result": 1.12}, {"measurement": "AUClast geometric mean ratio (combination/drug alone)", "setting": "[2]; [14]", "result": 1.16}, {"measurement": "C max geometric mean ratio (combination/drug alone)", "setting": "[2]; [14]", "result": 1.24}, {"measurement": "AUCinf geometric mean ratio (combination/drug alone)", "setting": "[2]; [11]", "result": 1.43}, {"measurement": "AUClast geometric mean ratio (combination/drug alone)", "setting": "[2]; [11]", "result": 1.47}, {"measurement": "C max geometric mean ratio (combination/drug alone)", "setting": "[2]; [11]", "result": 1.46}, {"measurement": "AUClast, mean (SD)", "setting": "[2]; human, in vivo", "result": "2,712.5 (731.9) ng*h/mL"}, {"measurement": "AUC(0-t)", "setting": "[2]; human, in vivo, AUClast, mean (SD)", "result": 2290, "unit": "ng·h/mL"}, {"measurement": "half-life", "setting": "[2]; human, 60 mg/m^2", "result": 19.6, "unit": "h"}, {"measurement": "AUC(0-inf)", "setting": "[2]; human, 60 mg/m^2, AUCinf, mean (SD), Schedule 4/2 dose level 1, n = 5, drug alone (day 1 of cycle 1)", "result": 2550, "unit": "ng·h/mL"}, {"measurement": "half-life", "setting": "[2]; human, 75 mg/m^2", "result": 15.7, "unit": "h"}, {"measurement": "AUC(0-inf)", "setting": "[2]; human, 75 mg/m^2, AUCinf, mean (SD), Schedule 2/1 dose level 3b, n = 8, drug alone (day 1 of cycle 1)", "result": 2960, "unit": "ng·h/mL"}, {"measurement": "Cmax", "setting": "[2]; human, 75 mg/m^2, C max, mean (SD), Schedule 2/1 dose level 3b, n = 8, drug alone (day 1 of cycle 1)", "result": 2580, "unit": "ng/mL"}, {"measurement": "Tmax", "setting": "[2]; human, 75 mg/m^2, T max, Schedule 2/1 dose level 3b, n = 8, drug alone (day 1 of cycle 1)", "result": 0.6, "unit": "h"}, {"measurement": "AUC(0-inf)", "setting": "[2]; human, AUCinf, mean (SD), Schedule 4/2 dose level 1, n = 5, docetaxel + sunitinib (day 22 of cycle 1)", "result": 3690, "unit": "ng·h/mL"}, {"measurement": "Cmax", "setting": "[2]; human, C max, mean (SD), Schedule 2/1 dose level 3b, n = 8, docetaxel + sunitinib (day 1 of cycle 2)", "result": 3180, "unit": "ng/mL"}, {"measurement": "Cmax", "setting": "[2]; human, C max, mean (SD), Schedule 4/2 dose level 1, n = 5, docetaxel + sunitinib (day 22 of cycle 1)", "result": 3100, "unit": "ng/mL"}, {"measurement": "Tmax", "setting": "[2]; human, T max, Schedule 2/1 dose level 3b, n = 8, docetaxel + sunitinib (day 1 of cycle 2)", "result": 0.8, "unit": "h"}, {"measurement": "MTD of docetaxel in combination with sunitinib", "setting": "[3]; with sunitinib on Schedule 2/1", "result": 75, "unit": "mg/m^2"}, {"measurement": "MTD of docetaxel in combination with sunitinib", "setting": "[3]; with sunitinib on Schedule 4/2", "result": 60, "unit": "mg/m^2"}, {"measurement": "Grade 3/4 neutropenia, patients", "setting": "breast cancer and NSCLC; docetaxel monotherapy, phase III trials of breast cancer and NSCLC", "result": "54–84%"}, {"measurement": "Use of granulocytic growth factor support", "setting": "breast cancer and NSCLC; single-agent docetaxel", "result": 17.9, "unit": "%"}]}, {"molecule": "CNC(=O)c1cc(Oc2ccc(NC(=O)Nc3ccc(Cl)c(C(F)(F)F)c3)cc2)ccn1", "note": "[sorafenib]", "values": [{"measurement": "Febrile neutropenia rate", "setting": "NSCLC", "result": 5, "unit": "%"}, {"measurement": "Grade 3/4 thrombocytopenia rate", "setting": "NSCLC", "result": 14, "unit": "%"}]}, {"molecule": "CCN(CC)CCNC(=O)c1c(C)[nH]c(/C=C2\\C(=O)Nc3ccc(F)cc32)c1C", "note": "[sunitinib, Sunitinib malate]", "values": [{"measurement": "MTD of sunitinib in combination with docetaxel", "setting": "[3]; Schedule 2/1, oral", "result": 37.5, "unit": "mg/day"}, {"measurement": "MTD of sunitinib in combination with docetaxel", "setting": "[3]; Schedule 4/2, oral", "result": 25, "unit": "mg/day"}, {"measurement": "Mean trough plasma concentration", "setting": "[1]", "result": 43.8, "unit": "ng/mL"}, {"measurement": "AUC(0-t)", "setting": "[1]; human, in vivo", "result": 297, "unit": "ng·h/mL"}, {"measurement": "AUC(0-t)", "setting": "[1]; human, in vivo, AUC0–24, mean (SD)", "result": 1170, "unit": "ng·h/mL"}, {"measurement": "AUC(0-t)", "setting": "[1]; human, plasma, oral, 25 mg, AUC0–24, mean (SD), Schedule 4/2 dose level 0 (sunitinib 25 mg, docetaxel 60 mg/m^2), n = 3, sunitinib alone (day 18)", "result": 721, "unit": "ng·h/mL"}, {"measurement": "Tmax", "setting": "[1]; human, plasma, oral, 37.5 mg", "result": 8, "unit": "h"}, {"measurement": "AUC(0-t)", "setting": "[1]; human, plasma, oral, AUC0–24, mean (SD), Schedule 4/2 dose level 0, n = 3, docetaxel + sunitinib (day 22)", "result": 548, "unit": "ng·h/mL"}, {"measurement": "AUC(0-t)", "setting": "[1]; human, plasma, oral, AUC0–24, mean (SD), Schedule 4/2 dose level 1, n = 5, docetaxel + sunitinib (day 22)", "result": 1020, "unit": "ng·h/mL"}, {"measurement": "Dose reduction for sunitinib", "setting": "[4]; [15]", "result": "4 (17) n (%)"}, {"measurement": "Treatment interruption for sunitinib, adverse event", "setting": "[4]; [15]", "result": "9 (39) n (%)"}, {"measurement": "Dose reduction for sunitinib", "setting": "[4]; [16]", "result": "5 (13) n (%)"}, {"measurement": "Treatment interruption for sunitinib, adverse event", "setting": "[4]; [16]", "result": "11 (28) n (%)"}, {"measurement": "Dose reduction for sunitinib", "setting": "[4]; [17]", "result": "1 (10) n (%)"}, {"measurement": "Treatment interruption for sunitinib, adverse event", "setting": "[4]; [17]", "result": "3 (30) n (%)"}]}]}
